Reference: ChEMBL document CHEMBL1153171, “Coumarins as novel 17beta-hydroxysteroid dehydrogenase type 3 inhibitors for potential treatment of prostate cancer” (Bioorg Med Chem Lett, 2010)

Experiments:
[1] = molecular target: T1, 17-beta-hydroxysteroid dehydrogenase type 3 (Homo sapiens, UniProt P37058); experiment: Inhibition of human 17beta-HSD3 expressed in HeLa cells; assay type: cell-based
T1 sequence (P37058 whole entry): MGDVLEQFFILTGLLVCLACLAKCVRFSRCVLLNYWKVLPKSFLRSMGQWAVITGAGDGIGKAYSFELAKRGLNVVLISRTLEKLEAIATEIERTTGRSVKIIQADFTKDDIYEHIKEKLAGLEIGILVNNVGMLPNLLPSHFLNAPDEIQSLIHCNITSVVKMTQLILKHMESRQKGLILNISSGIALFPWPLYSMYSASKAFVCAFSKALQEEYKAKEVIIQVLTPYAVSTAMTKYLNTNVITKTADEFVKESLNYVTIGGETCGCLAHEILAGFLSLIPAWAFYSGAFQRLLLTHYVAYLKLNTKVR

Estrogen receptor [2] = molecular target: T2, Estrogen receptor (Homo sapiens, UniProt P03372); experiment: Agonist activity at ER by reporter gene assay; assay type: functional
T2 sequence (P03372 whole entry): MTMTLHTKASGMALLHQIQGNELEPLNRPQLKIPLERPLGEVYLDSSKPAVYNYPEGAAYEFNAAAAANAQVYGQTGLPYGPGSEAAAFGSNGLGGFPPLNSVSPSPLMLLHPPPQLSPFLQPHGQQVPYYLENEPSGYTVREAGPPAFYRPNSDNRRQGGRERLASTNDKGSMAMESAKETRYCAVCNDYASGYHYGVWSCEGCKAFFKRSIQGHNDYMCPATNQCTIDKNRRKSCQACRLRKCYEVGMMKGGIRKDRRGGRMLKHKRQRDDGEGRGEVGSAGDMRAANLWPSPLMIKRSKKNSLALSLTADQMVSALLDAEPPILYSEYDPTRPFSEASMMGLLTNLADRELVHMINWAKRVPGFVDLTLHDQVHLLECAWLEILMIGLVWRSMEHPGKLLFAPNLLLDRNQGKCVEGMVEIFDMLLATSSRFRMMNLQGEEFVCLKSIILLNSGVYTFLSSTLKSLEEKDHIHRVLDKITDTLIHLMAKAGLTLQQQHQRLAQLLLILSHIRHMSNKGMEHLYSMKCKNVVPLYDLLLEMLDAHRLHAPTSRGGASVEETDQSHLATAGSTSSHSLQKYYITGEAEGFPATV

[3] = molecular target: T3, 17-beta-hydroxysteroid dehydrogenase type 2 (Homo sapiens, UniProt P37059); experiment: Inhibition of 17beta-HSD2 by human cell based assay
T3 sequence (P37059 whole entry): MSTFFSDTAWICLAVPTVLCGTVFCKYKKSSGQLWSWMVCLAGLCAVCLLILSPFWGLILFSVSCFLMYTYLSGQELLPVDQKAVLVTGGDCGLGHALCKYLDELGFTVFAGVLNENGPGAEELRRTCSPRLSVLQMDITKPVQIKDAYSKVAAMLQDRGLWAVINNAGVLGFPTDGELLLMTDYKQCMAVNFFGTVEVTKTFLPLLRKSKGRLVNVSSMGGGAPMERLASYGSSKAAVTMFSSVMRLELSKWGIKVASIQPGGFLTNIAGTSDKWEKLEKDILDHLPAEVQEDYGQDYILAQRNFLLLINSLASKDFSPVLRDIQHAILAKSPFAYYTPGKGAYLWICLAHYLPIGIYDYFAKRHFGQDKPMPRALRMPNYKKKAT

Androgen receptor [4] = molecular target: T4, Androgen receptor (Homo sapiens, UniProt P10275); experiment: Antagonist activity at AR by reporter gene assay; assay type: functional
T4 sequence (P10275 whole entry): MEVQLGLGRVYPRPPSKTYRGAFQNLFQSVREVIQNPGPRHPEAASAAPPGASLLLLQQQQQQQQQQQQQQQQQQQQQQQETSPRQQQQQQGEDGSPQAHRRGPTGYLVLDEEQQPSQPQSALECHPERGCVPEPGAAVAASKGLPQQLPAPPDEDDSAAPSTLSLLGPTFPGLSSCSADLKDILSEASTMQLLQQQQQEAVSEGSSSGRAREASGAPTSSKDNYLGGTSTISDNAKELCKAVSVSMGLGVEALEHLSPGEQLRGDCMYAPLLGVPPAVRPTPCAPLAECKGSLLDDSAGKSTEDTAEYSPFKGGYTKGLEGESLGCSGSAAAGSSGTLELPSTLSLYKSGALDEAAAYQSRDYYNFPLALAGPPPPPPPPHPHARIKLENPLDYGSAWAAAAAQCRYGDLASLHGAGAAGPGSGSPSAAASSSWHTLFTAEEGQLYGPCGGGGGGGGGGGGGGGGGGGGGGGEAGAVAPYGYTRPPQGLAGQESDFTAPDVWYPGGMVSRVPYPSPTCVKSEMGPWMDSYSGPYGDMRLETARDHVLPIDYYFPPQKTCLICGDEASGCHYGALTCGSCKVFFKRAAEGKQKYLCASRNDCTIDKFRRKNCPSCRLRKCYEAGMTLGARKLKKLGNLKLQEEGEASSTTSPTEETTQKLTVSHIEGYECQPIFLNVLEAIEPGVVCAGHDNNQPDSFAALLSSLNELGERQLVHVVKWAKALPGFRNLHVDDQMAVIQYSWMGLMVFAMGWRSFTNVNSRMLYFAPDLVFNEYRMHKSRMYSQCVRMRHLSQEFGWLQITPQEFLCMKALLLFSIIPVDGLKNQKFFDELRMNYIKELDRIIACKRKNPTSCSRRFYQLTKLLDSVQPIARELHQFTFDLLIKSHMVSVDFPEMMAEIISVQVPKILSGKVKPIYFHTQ

Estrogen receptor [5] = molecular target: T2, Estrogen receptor; experiment: Antagonist activity at ER by reporter gene assay; assay type: functional
Androgen receptor [6] = molecular target: T4, Androgen receptor; experiment: Agonist activity at AR by reporter gene assay; assay type: functional
Glucocorticoid receptor [7] = molecular target: T5, Glucocorticoid receptor (Homo sapiens, UniProt P04150); experiment: Agonist activity at GR by reporter gene assay; assay type: functional
T5 sequence (P04150 whole entry): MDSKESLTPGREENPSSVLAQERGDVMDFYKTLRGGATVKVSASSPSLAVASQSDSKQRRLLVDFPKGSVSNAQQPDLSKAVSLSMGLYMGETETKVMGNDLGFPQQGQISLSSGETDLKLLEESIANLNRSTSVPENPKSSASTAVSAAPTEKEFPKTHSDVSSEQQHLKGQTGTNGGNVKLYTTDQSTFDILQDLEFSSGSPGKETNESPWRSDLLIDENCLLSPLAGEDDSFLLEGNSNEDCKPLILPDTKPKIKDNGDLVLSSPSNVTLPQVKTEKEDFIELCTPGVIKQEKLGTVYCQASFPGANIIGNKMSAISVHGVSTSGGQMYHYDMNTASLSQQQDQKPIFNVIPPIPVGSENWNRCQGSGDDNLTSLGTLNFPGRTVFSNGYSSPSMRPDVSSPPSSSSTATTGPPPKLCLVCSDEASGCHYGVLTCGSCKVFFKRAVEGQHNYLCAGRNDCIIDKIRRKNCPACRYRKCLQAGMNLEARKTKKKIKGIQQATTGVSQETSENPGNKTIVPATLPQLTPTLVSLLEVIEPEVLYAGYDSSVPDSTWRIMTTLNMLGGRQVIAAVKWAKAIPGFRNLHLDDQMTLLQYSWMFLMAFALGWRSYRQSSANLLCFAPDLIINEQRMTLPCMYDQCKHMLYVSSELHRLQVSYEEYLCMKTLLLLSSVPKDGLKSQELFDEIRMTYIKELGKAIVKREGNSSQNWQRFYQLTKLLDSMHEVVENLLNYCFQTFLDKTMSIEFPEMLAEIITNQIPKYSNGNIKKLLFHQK

Glucocorticoid receptor [8] = molecular target: T5, Glucocorticoid receptor; experiment: Antagonist activity at GR by reporter gene assay; assay type: functional
[9] = molecular target: T6, 17-beta-hydroxysteroid dehydrogenase type 1 (Homo sapiens, UniProt P14061); experiment: Inhibition of 17beta-HSD1 by human cell based assay
T6 sequence (P14061 whole entry): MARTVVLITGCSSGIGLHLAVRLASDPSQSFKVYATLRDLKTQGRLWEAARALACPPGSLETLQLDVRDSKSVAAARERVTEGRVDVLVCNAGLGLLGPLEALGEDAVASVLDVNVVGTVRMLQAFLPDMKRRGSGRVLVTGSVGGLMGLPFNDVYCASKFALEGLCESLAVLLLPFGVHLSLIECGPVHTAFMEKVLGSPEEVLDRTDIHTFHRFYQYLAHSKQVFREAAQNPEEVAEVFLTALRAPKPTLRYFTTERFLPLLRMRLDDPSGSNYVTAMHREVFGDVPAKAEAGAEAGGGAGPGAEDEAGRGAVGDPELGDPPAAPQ

Row | SMILES | IC50 [1] | also measured
1 | Cc1c(F)c(=O)oc2cc(O)ccc12 | 1000 nM | 
2 | O=c1cc(CSc2nccs2)c2ccc(O)cc2o1 | 10 nM | 
3 | CCCc1c(C)c2ccc(O)cc2oc1=O | 240 nM | 
4 | O=c1cc(CSC2NCCS2)c2ccc(O)cc2o1 (stereo not given) | 96 nM | 
5 | O=c1cc(C(F)(F)F)c2ccc(O)cc2o1 | 190 nM | 
6 | O=c1cc(COc2ccccc2)c2ccc(O)cc2o1 | 10000 nM | 
7 | Cc1cccc(SCc2cc(=O)oc3cc(O)ccc23)n1 | 1.5 nM | IC50 (Estrogen receptor [2]; read-out: IC50): 50 µM; IC50 [3]: Not Active; IC50 (Androgen receptor [4]; read-out: IC50): 50 µM; IC50 (Estrogen receptor [5]): Not Active; IC50 (Androgen receptor [6]): Not Active; IC50 (Glucocorticoid receptor [7]): Not Active; IC50 (Glucocorticoid receptor [8]): Not Active; IC50 [9]: Not Active
8 | O=c1cc(CSc2nncs2)c2ccc(O)cc2o1 | 200 nM | 
9 | O=c1cc(Cc2ccccc2)c2ccc(O)cc2o1 | 10000 nM | 
10 | O=c1cc(CSc2ccc([N+](=O)[O-])cn2)c2ccc(O)cc2o1 | 88 nM | 
11 | O=c1cc(-c2ccccc2)c2ccc(O)cc2o1 | 1000 nM | 
12 | Cc1c(C#N)c(=O)oc2cc(O)ccc12 | 1000 nM | 
13 | Cc1cccc(CCc2cc(=O)oc3cc(O)ccc23)n1 | 8 nM | IC50 (Estrogen receptor [2]): Not Active; IC50 [3]: Not Active; IC50 (Androgen receptor [4]): Not Active; IC50 (Estrogen receptor [5]): Not Active; IC50 (Androgen receptor [6]): Not Active; IC50 (Glucocorticoid receptor [7]): Not Active; IC50 (Glucocorticoid receptor [8]): Not Active; IC50 [9]: Not Active
14 | Cc1c(C)c2ccc(O)cc2oc1=O | 210 nM | 
15 | O=c1cc(CSc2ccccn2)c2ccc(O)cc2o1 | 3 nM | 
16 | Cn1ccnc1SCc1cc(=O)oc2cc(O)ccc12 | 91 nM | 
17 | Cc1cc2ccc(O)cc2oc1=O | 1000 nM | 
18 | O=c1oc2cc(O)ccc2c(C(F)(F)F)c1Cc1ccccc1 | 30 nM | IC50 (Estrogen receptor [2]; read-out: IC50): 1 µM; IC50 [3]: Not Active; IC50 (Androgen receptor [4]; read-out: IC50): 6 µM; IC50 (Estrogen receptor [5]): Not Active; IC50 (Androgen receptor [6]): Not Active; IC50 (Glucocorticoid receptor [7]): Not Active; IC50 (Glucocorticoid receptor [8]): Not Active; IC50 [9]: Not Active

Row | SMILES | IC50 [1] | also measured
19 | O=c1cc(CNc2ccccc2)c2ccc(O)cc2o1 | 4000 nM | 
20 | O=c1cc(CSc2ccccc2)c2ccc(O)cc2o1 | 93 nM | 
21 | Cc1c(Cc2ccccc2)c(=O)oc2cc(O)ccc12 | 200 nM | 
22 | O=c1cc(CCc2ccccc2)c2ccc(O)cc2o1 | 20 nM | 
23 | Cc1cccc(SCc2c(F)c(=O)oc3cc(O)ccc23)n1 | 27 nM | 
24 | O=c1cc(CSc2ccc(C(F)(F)F)cn2)c2ccc(O)cc2o1 | 230 nM | 
25 | O=c1oc2cc(O)ccc2c(C(F)(F)F)c1CSc1ccccn1 | 320 nM | 
26 | O=c1cc(CSc2ccncc2)c2ccc(O)cc2o1 | 5000 nM | 
27 | O=c1cc(CSc2cccs2)c2ccc(O)cc2o1 | 420 nM | 
28 | Cc1c(Cl)c(=O)oc2cc(O)ccc12 | 100 nM | 
29 | COCc1cc(=O)oc2cc(O)ccc12 | 5000 nM | 
30 | Cc1cc(=O)oc2cc(O)ccc12 [HYMECROMONE] | 1000 nM | 
31 | Cc1cccc(OCCc2cc(=O)oc3cc(O)ccc23)n1 | 1000 nM | 
32 | CCCc1cc(=O)oc2cc(O)ccc12 | 59 nM | 
33 | Cc1cccc(SCc2c(Cl)c(=O)oc3cc(O)ccc23)n1 | 47 nM | 
34 | CCc1cc(=O)oc2cc(O)ccc12 | 100 nM | 
35 | CN(Cc1cc(=O)oc2cc(O)ccc12)c1ccccc1 | 6000 nM | 
36 | O=c1cc(CSc2ncccn2)c2ccc(O)cc2o1 | 1000 nM | 
